Laboratory results taken from US6297230A, “Cyanoaziridines for treating cancer” (priority 2000, dated 2001).
Values after ≈ are worked out from the molar mass of the structure shown. “Also recorded” adds a separate entry of the source. Where two headings read alike, the source gives them in different places.

Key:
8226/S myeloma cells = assay: MTT growth inhibition, parental 8226 myeloma cells; type: cell-based, human; details: for IC50: Table 5, Sensitive (parental) 8226; for Antitumor effect: parental and imexon-resistant myeloma cells; for Potency relative to imexon: myeloma cells; for Enhanced potency: decrease in IC50 against myeloma cell growth: compared with imexon
Protocol: (§1) Microculture Tetrazolium (MTT) Assay for Tumor Cells
(§2) Tumors are disaggregated into single cell suspensions using mechanical, hypoosmotic, and/or enzymatic (trypsin) methods. The cells are plated at a concentration of 3-5×10^4 per […] well into plastic 96-well plates. Growth medium containing 5-10% (vol/vol) heat-inactivated fetal bovine serum and penicillin/streptomycin (both […]) are added prior to incubation at 37° C. for 6 days. Afterwards the medium containing the drug is removed, the cells are centrifuged in fresh medium or phosphate-buffered saline (pH 7.4). A tetrazolium dye, […]-2,5-diphenyl tetrazolium (MTT), is then added. (Mossman, T., J Immunol 65:55-63, 1983.) This dye forms a colored formazan product upon activation by mitochondrial reductases in viable cells. Typically, the formazan product is solubilized in acid-propanol or DMSO. The intensity of the color is proportional to viable cell numbers and this is quantitated by spectrophotometric absorbance at 570 nm on a micro ELISA plate reader. The results are calibrated in % control absorbance from untreated tumor cells. (Alley, et al., Cancer Res 48:589-601, 1988.)
(§3) The following unpublished studies were performed in vitro to develop and characterize a human myeloma cell line with resistance to imexon-induced cytotoxicity. The original (parental) 8226 cell line was developed by Matsuoka, et al. (Matsuoka, et al., Proc Soc Exp Biol Med 125:1246-1250, 1967). It is a lymphoblastoid cell line which stains for lambda light immunoglobulin production. It grows in vitro in suspension culture (non-adherent) and forms tumors when injected into SCID mice. (Skehan, et al., J Natl Cancer Inst 82:1107-1112, 1990.)
(§4) One exciting feature of our novel compounds is, that they work on imexon-resistant cells. An imexon-resistant 8226 myeloma cell line was selected by continuously exposing cells to gradually increasing concentrations of imexon up to 3.25 mg/mL. This cell line has slightly longer cell doubling time than 8226 sensitive cells (24 vs 20 hours). […] The dose response curve for imexon continuous exposure was determined using MTT assay. Each data point represents the mean of three experiments performed in 8 replicates.
(§5) We compared IC50 concentrations and there is a 4-fold resistance observed for the 8226/I-R cell line when the cells were continuously exposed to imexon for […] at 37° C. The degree of resistance was relatively unstable in the absence of the drug, with the resistant cells losing substantial resistance when maintained in imexon-free medium for 20 weeks (FIG. 2).
(§6) IC50 was measured by MTT assay. IC50 refer to the concentration by drug that results in 50% growth inhibition. A minimum of 2 assays were performed for each drug following 250 mg/mL imexon is equivalent to 6.5 cGy radiation in sensitive cells.
(§7) Using the colorimetric microculture tetrazolium (MTT) assay, imexon and 25-related analogs were studied for tumor growth inhibition in vitro. Imexon-induced DNA single strand breaks were assessed by alkaline elution. Cells were exposed to imexon for 1 hour prior to start of experiment. The fraction of ^14 C-labeled DNA retained on the filter is plotted against the time of elution. The cells included parental 8226 myeloma cells and the 8226 imexon-resistant cells exposed to drug (imexon or analog) continuously for 10 days at 37° C. At the end of the exposure period, the cells were analyzed for viability using the formazan-forming tetrazolium dye (MTT) assay.

[1] = system: L-1210 MDR leukemia cells; assay: MTT growth inhibition, multidrug-resistant L-1210 leukemia cells; type: cell-based, mouse; details: for Fold Resistance of IC50 's (MDR/S): L-1210 MDR vs sensitive, 11520 min; for IC50: MDR L-1210, drug continuously present 8 days
Protocol: as §2
In addition, the imexon analogs have also been tested in a multidrug-resistant (MDR) mouse L-1210 leukemia cell line.
L-1210 MDR Cells represent a multidrug-resistant cell line developed for resistance to the alkylating agent mitomycin C. (Dorr, et al., Biochem Pharmacol 36(19):3115-3120, 1987.) This cell line has the same general growth characteristics of the parental line, but is cross-resistant to numerous natural-product based anticancer agents. This includes anthracyclines such as doxorubicin (Adriamycin®) and vinca alkaloids such as vincristine or vinblastine.
(§8) *Drug continuously present for 8 days; IC50 measured by MTT dye

8226/I-R myeloma cells = assay: MTT growth inhibition, imexon-resistant 8226 myeloma cells; type: cell-based, human; details: for IC50 / Fold Resistance of IC50 R/IC50 's: Table 5; for IC50: imexon-resistant 8226; for Cross-resistance with imexon: 8226 imexon-resistant vs parental; for Fold Resistance of IC50 R/IC50 's: imexon-resistant vs sensitive 8226
Protocol: as §1, §2, §3, §4, §5, §6, §7

[2] = system: L-1210 leukemia cells (sensitive); assay: MTT growth inhibition, sensitive L-1210 leukemia cells; type: cell-based, mouse; details: Sensitive L-1210, drug continuously present 8 days
Protocol: as §2, with “1988.) […]” for “1988.)”
Murine L-1210 Leukemia Cells were first described by Law, et al. from a female DBA/2 mouse exposed to topical methylcholanthrene. (Law, et al., J Natl Cancer Inst 10:179-192, 1949.) The cells represent a lymphocytic lineage and are highly tumorigenic in syngeneic DBA/2 mice, producing lethality typically 10-14 days after inoculation. This cell line has been used extensively to characterize the antitumor activity of chemotherapeutic agents. (Goldin, et al., Cancer Res (Cancer Chemotherapy Screening Data IX) 21:27-92, 1961.) The L-1210 cells have a model 40-41 chromosomes and a very high plating efficiency in suspension cultures in vitro.
as §8

[3] = Mus musculus, L1210, 192 h, read-out: IC50

| Compound | IC50 (8226/S myeloma cells) [µg/mL] | Antitumor effect (8226/S myeloma cells) | Fold Resistance of IC50 's (MDR/S) [1] | IC50 [1] [µg/mL] | IC50 (8226/I-R myeloma cells) [µg/mL] | IC50 [2] [µg/mL] | IC50 [1, 3] [µg/mL] | Cross-resistance with imexon (8226/I-R myeloma cells) | IC50 [2, 3] [µg/mL] | IC50 (8226/S myeloma cells; Homo sapiens, read-out: IC50) [µg/mL] | IC50 (8226/I-R myeloma cells; Homo sapiens, read-out: IC50) [µg/mL] | Fold Resistance of IC50 R/IC50 's (8226/I-R myeloma cells) | Potency relative to imexon (8226/S myeloma cells) | Enhanced potency: decrease in IC50 against myeloma cell growth (8226/S myeloma cells) [%] |
| --- | --- | --- | --- | --- | --- | --- | --- | --- | --- | --- | --- | --- | --- | --- |
| CC(=O)Oc1ccccc1NC(=O)N1CC1C#N (stereo not shown) [AMP 424, 2-Cyanoaziridine-1-[N-(2-acetoxyphenyl)]carboxamide] | > 100 | no antitumor effects even at high concentrations | 1.0 | > 10 | > 100 | > 10 |  |  |  |  |  |  |  |  |
| CCOC(=O)c1ccc(NC(=O)N2CC2C#N)cc1 (stereo not shown) [AMP 419, 2-Cyanoaziridine-1-[N-(4-ethoxycarbonylphenyl)]carboxamide] |  |  | 1.2 |  |  |  | 3 (≈ 11.6 µM) | lack of significant (>50% IC50 change) cross-resistance with imexon | 2.5 (≈ 9.64 µM) |  |  |  |  |  |
| CCOC(=O)CNC(=O)N1CC1C#N (stereo not shown) [AMP 420, 2-Cyanoaziridine-1-[N-(ethoxycarbonyl)methyl]carboxamide] |  |  | 1.0 |  |  |  | 2.5 (≈ 12.7 µM) | lack of significant (>50% IC50 change) cross-resistance with imexon | 2.5 (≈ 12.7 µM) | 5 (≈ 25.4 µM) | 6 (≈ 30.4 µM) | 1.2 |  |  |
| N#CC1CN1C(=O)Nc1ccc(S(N)(=O)=O)cc1 (stereo not shown) [AMP 422, 2-Cyanoaziridine-1-[N-(4-sulfamylphenyl)]carboxamide] |  | no antitumor effects even at high concentrations |  |  |  |  | > 10 |  | > 10 | > 100 | < 100 |  |  |  |
| N#CC1CN1C(=O)NCc1ccccc1 (stereo not shown) [AMP 412, 2-Cyanoaziridine-1-(N-benzyl)carboxamide] |  |  | 2.6 |  |  |  | 2.1 (≈ 10.4 µM) | lack of significant (>50% IC50 change) cross-resistance with imexon; also recorded: no significant cross resistance | 0.8 (≈ 3.98 µM) | 1.8 (≈ 8.95 µM) | 2.2 (≈ 10.9 µM) | 1.2 | roughly equal potency to imexon |  |
| N#CC1CN1C(=O)Nc1ccc(F)cc1 (stereo not shown) [AMP 415, 2-Cyanoaziridine-1-[N-(4-fluorophenyl)]carboxamide] |  |  | 0.8 |  |  |  | 1.2 (≈ 5.85 µM) | lack of significant (>50% IC50 change) cross-resistance with imexon; also recorded: no significant cross resistance | 1.5 (≈ 7.31 µM) | 1 (≈ 4.87 µM) | 1.2 (≈ 5.85 µM) | 1.2 | roughly equal potency to imexon | > 40 |
| CNC(=O)N1CC1C#N (stereo not shown) [AMP 403, 2-Cyanoaziridine-1-(N-methyl)carboxamide] |  |  | 2.5 |  |  |  | 2.7 (≈ 21.6 µM) | lack of significant (>50% IC50 change) cross-resistance with imexon | 1.1 (≈ 8.79 µM) | 3.3 (≈ 26.4 µM) | 3.3 (≈ 26.4 µM) | 1.0 |  |  |
| CCNC(=O)N1CC1C#N (stereo not shown) [AMP 406, 2-Cyanoaziridine-1-(N-ethyl)carboxamide] |  |  | 1.0 |  |  |  | 2 (≈ 14.4 µM) |  | 2 (≈ 14.4 µM) | 3.1 (≈ 22.3 µM) | 3.6 (≈ 25.9 µM) | 1.2 |  |  |
| CC(C)(C)NC(=O)N1CC1C#N (stereo not shown) [AMP 410, 2-Cyanoaziridine-1-(N-t-butyl)carboxamide] |  |  | 1.4 |  |  |  | 30.7 (≈ 184 µM) |  | 22 (≈ 132 µM) | 20 (≈ 120 µM) | 36 (≈ 215 µM) | 1.8 |  |  |
| CCCCNC(=O)N1CC1C#N (stereo not shown) [AMP 414, 2-Cyanoaziridine-1-(N-butyl)carboxamide] |  |  | 1.0 |  |  |  | 2 (≈ 12 µM) | lack of significant (>50% IC50 change) cross-resistance with imexon | 2 (≈ 12 µM) | 2.8 (≈ 16.7 µM) | 2.8 (≈ 16.7 µM) | 1.0 |  |  |
| N#CC1CN1C(=O)NC1CCCCC1 (stereo not shown) [AMP 413, 2-Cyanoaziridine-1-(N-cyclohexyl)carboxamide] |  |  | 2.2 |  |  |  | 3.1 (≈ 16 µM) |  | 1.4 (≈ 7.24 µM) | 7 (≈ 36.2 µM) | 19 (≈ 98.3 µM) |  |  |  |
| CC(=O)c1cccc(NC(=O)N2CC2C#N)c1 (stereo not shown) [AMP 425, 2-Cyanoaziridine-1-[N-(3-acetylphenyl)]carboxamide] |  |  | 0.8 |  |  |  | 1.8 (≈ 7.85 µM) | lack of significant (>50% IC50 change) cross-resistance with imexon; also recorded: no significant cross resistance | 2.2 (≈ 9.6 µM) | 1.98 (≈ 8.64 µM) | 2.2 (≈ 9.6 µM) | 1.1 | roughly equal potency to imexon |  |
| N#CC1CN1C(=O)Nc1cccc2ccccc12 (stereo not shown) [AMP 423, 2-Cyanoaziridine-1-[N-(1-naphthyl)]carboxamide] |  |  | 0.4 |  |  |  | 0.64 (≈ 2.7 µM) |  | 1.7 (≈ 7.17 µM) | 1 (≈ 4.21 µM) | 2.1 (≈ 8.85 µM) | 2.1 |  | > 40 |
| N#CC1CN1C(=O)Nc1ccc([N+](=O)[O-])cc1 (stereo not shown) [AMP 417, 2-Cyanoaziridine-1-[N-(4-nitrophenyl)]carboxamide] |  |  | 1.0 |  |  |  | 0.6 (≈ 2.58 µM) | lack of significant (>50% IC50 change) cross-resistance with imexon; also recorded: no significant cross resistance | 0.6 (≈ 2.58 µM) | 2.1 (≈ 9.04 µM) | 2 (≈ 8.61 µM) | 0.95 | roughly equal potency to imexon |  |
| N#CC1CN1C(=O)Nc1cccnc1 (stereo not shown) [AMP 421, 2-Cyanoaziridine-1-[N-(3-pyridyl)]carboxamide] |  |  | 0.9 |  |  |  | 2.1 (≈ 11.2 µM) | lack of significant (>50% IC50 change) cross-resistance with imexon | 2.3 (≈ 12.2 µM) | 2.2 (≈ 11.7 µM) | 2.8 (≈ 14.9 µM) | 1.3 |  |  |
